Measurements from patent publication US12187742B2 (XRAD Therapeutics, Inc., priority 2018, dated 2025).
Where a name gives a salt, the structure may show the parent alone.

The compounds below were run against ATM (Homo sapiens (Human), UniProt Q13315) (assay: ATM in Cell Western Assay (pKAP1 in etoposide-treated MCF-7 cells)). Conditions: pKAP1 in etoposide-treated MCF-7 cells.
Format: cell-based
In short: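 Cells received compounds in a 10-dose, 3-fold series from a 1 μM final top concentration, then 100 μM etoposide, for 1 hr at 37° C. They were then fixed with paraformaldehyde and permeabilized with 0.1% Triton X-100. After immunostaining, plates were scanned on an infrared imager.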

Chain of ATM (Q13315 whole entry): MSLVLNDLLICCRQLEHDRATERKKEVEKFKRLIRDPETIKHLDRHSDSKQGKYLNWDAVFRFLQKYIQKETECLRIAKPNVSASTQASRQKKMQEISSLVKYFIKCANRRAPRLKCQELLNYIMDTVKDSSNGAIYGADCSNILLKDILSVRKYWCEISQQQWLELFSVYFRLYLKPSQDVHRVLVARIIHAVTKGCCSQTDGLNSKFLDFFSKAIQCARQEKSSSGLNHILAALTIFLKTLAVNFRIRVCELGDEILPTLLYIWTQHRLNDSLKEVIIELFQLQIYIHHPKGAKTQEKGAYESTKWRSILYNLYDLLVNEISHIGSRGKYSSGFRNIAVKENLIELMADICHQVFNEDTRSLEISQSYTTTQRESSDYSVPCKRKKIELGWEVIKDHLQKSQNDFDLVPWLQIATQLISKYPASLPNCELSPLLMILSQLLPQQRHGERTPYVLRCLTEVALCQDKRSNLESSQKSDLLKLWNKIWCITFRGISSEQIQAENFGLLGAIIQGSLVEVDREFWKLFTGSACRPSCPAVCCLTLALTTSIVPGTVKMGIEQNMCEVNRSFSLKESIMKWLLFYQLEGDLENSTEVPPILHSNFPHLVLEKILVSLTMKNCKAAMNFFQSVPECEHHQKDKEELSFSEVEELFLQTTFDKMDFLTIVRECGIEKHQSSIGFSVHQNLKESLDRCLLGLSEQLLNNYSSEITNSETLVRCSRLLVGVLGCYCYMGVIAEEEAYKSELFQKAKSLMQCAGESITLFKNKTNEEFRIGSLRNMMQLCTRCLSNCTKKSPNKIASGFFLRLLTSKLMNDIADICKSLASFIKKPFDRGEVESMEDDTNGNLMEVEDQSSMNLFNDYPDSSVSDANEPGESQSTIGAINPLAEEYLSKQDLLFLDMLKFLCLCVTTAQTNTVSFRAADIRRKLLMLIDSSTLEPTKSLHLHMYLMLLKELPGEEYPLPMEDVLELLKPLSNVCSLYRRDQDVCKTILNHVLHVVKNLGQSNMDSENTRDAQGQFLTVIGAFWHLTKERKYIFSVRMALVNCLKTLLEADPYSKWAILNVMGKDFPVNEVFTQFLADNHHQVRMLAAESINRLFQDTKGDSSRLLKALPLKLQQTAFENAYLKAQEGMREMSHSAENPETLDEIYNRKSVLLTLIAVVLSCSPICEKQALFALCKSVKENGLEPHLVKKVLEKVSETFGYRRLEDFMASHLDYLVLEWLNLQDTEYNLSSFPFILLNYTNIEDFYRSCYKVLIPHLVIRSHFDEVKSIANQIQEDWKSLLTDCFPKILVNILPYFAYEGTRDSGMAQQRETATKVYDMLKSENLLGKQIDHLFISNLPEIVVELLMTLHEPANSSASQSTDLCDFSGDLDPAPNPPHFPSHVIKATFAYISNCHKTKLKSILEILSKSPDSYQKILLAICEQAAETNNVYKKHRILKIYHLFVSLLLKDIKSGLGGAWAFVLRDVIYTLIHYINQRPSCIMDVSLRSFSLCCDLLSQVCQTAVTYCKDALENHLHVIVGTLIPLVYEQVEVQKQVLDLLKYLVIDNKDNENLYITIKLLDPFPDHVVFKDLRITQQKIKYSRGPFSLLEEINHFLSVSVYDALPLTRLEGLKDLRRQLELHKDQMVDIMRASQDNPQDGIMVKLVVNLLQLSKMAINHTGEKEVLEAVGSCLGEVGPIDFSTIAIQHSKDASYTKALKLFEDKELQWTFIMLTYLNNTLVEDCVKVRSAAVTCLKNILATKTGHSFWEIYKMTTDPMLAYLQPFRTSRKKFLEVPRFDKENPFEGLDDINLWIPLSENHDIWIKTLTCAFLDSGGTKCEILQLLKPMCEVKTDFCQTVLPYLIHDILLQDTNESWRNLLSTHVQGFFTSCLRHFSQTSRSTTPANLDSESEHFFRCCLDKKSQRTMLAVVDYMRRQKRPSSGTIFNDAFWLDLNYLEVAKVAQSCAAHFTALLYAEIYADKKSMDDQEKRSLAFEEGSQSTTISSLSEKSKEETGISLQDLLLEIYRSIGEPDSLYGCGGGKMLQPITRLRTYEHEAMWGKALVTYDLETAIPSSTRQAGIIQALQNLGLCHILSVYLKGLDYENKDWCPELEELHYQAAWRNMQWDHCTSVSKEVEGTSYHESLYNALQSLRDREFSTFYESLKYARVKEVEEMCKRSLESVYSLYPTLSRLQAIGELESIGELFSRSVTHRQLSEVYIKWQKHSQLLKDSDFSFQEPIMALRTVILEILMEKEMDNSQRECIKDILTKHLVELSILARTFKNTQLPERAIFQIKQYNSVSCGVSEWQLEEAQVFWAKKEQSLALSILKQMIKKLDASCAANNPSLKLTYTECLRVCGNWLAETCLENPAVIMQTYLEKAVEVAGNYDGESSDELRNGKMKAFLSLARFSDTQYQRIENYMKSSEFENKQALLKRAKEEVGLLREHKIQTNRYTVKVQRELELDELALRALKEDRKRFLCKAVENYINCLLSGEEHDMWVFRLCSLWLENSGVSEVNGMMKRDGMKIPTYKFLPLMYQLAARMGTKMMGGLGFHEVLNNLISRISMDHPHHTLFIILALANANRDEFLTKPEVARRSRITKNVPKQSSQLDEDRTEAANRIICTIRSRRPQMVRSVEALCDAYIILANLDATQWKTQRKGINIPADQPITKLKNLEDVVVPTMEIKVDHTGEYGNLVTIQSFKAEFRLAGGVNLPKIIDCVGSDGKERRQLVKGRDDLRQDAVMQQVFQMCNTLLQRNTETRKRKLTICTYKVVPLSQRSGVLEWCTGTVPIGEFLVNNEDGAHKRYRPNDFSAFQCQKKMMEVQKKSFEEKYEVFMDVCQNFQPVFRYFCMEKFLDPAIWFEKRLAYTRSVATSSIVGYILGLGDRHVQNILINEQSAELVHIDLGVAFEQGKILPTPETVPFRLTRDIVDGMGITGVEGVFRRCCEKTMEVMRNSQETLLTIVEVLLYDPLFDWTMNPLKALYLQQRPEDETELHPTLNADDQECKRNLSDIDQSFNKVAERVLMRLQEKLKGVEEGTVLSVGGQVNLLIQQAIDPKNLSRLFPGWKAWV

SMILES	IC50 [nM]
CC(C)NCCOc1ncc(-c2cc3c(cc2F)ncc2c3[C@]3(C[C@@H](O)C3)C(=O)N2C)cc1NS(C)(=O)=O [Example 382, trans-N-(5-(7′-Fluoro-3-hydroxy-3′-methyl-2′-oxo-2′,3′-dihydrospiro[cyclobutane-1,1′-pyrrolo[2,3-c]quinolin]-8′-yl)-2-(2-(isopropylamino)ethoxy)pyridin-3-yl)methanesulfonamide]	1 to 100
CO[C@H]1C[C@@]2(C1)C(=O)N(C)c1cnc3cc(F)c(-c4cnc(OCCNC(C)C)c(NS(C)(=O)=O)c4)cc3c12 [Example 386]	1 to 100
CCO[C@H]1C[C@@]2(C1)C(=O)N(C)c1cnc3cc(F)c(-c4cnc(OCCNC(C)C)c(NS(C)(=O)=O)c4)cc3c12 [Example 394, trans-N-(5-(3-Ethoxy-7′-fluoro-3′-methyl-2′-oxo-2′,3′-dihydrospiro[cyclobutane-1,1′-pyrrolo[2,3-c]quinolin]-8′-yl)-2-(2-(isopropylamino)ethoxy)pyridin-3-yl)methanesulfonamide]	1 to 100
CC(C)NCCOc1ncc(-c2cc3c(cc2F)ncc2c3[C@]3(C[C@@H](OC(C)C)C3)C(=O)N2C)cc1NS(C)(=O)=O [Example 396, trans-N-(5-(7′-Fluoro-3-isopropoxy-3′-methyl-2′-oxo-2′,3′-dihydrospiro[cyclobutane-1,1′-pyrrolo[2,3-c]quinolin]-8′-yl)-2-(2-(isopropylamino)ethoxy)pyridin-3-yl)methanesulfonamide]	1 to 100
CC(C)NCCOc1ncc(-c2cc3c(cc2F)ncc2c3[C@]3(C[C@@H](OC(C)c4ccccc4)C3)C(=O)N2C)cc1NS(C)(=O)=O (stereo partly drawn) [Example 398, trans-N-(5-(7′-Fluoro-3′-methyl-2′-oxo-3-(1-phenylethoxy)-2′,3′-dihydrospiro[cyclobutane-1,1′-pyrrolo[2,3-c]quinolin]-8′-yl)-2-(2-(isopropylamino)ethoxy)pyridin-3-yl)methanesulfonamide]	> 100
CN(C)CCCOc1c(NS(C)(=O)=O)cc(-c2ccc3ncc4c(c3c2)C2(CCC2)C(=O)N4C)cc1C(=O)O [Example 399, 2-(3-(Dimethylamino)propoxy)-5-(3′-methyl-2′-oxo-2′,3′-dihydrospiro[cyclobutane-1,1′-pyrrolo[2,3-c]quinolin]-8′-yl)-3-(methylsulfonamido)benzoic acid]	> 100
CC(C)NCCOc1ncc(-c2cc3c(cc2F)ncc2c3[C@]3(C[C@@H](Oc4ccccc4)C3)C(=O)N2C)cc1NS(C)(=O)=O [Example 401, trans-N-(5-(7′-Fluoro-3′-methyl-2′-oxo-3-phenoxy-2′,3′-dihydrospiro[cyclobutane-1,1′-pyrrolo[2,3-c]quinolin]-8′-yl)-2-(2-(isopropylamino)ethoxy)pyridin-3-yl)methanesulfonamide]	1 to 100
CC(C)NCCOc1ncc(-c2cc3c(cc2F)ncc2c3[C@]3(C[C@@H](Oc4ccccc4)C3)C(=O)N2C)cc1NS(=O)(=O)N(C)C [Example 403, trans-S′-{5-[(Dimethylsulfamoyl)amino]-6-{2-[(propan-2-ylamino]ethoxy}pyridine-3-yl}-7′-fluoro-3′-methyl-3-phenoxy-2′,3′-dihydrospiro[cyclobutane-1,1′-pyrrolo[2,3-c]quinoline]-2′-one hydrochloride]	> 100
COC[C@H]1C[C@@]2(C1)C(=O)N(C)c1cnc3cc(F)c(-c4cnc(OCCNC(C)C)c(NS(C)(=O)=O)c4)cc3c12 [Example 405, trans-N-(5-(7′-Fluoro-3-(methoxymethyl)-3′-methyl-2′-oxo-2′,3′-dihydrospiro[cyclobutane-1,1′-pyrrolo[2,3-c]quinolin]-8′-yl)-2-(2-(isopropylamino)ethoxy)pyridin-3-yl)methanesulfonamide]	1 to 100
CCOC[C@H]1C[C@@]2(C1)C(=O)N(C)c1cnc3cc(F)c(-c4cnc(OCCNC(C)C)c(NS(C)(=O)=O)c4)cc3c12 [Example 407, trans-N-(5-(3-(Ethoxymethyl)-7′-fluoro-3′-methyl-2′-oxo-2′,3′-dihydrospiro[cyclobutane-1,1′-pyrrolo[2,3-c]quinolin]-8′-yl)-2-(2-(isopropylamino)ethoxy)pyridin-3-yl)methanesulfonamide]	1 to 100
CC(C)NCCOc1ncc(-c2cc3c(cc2F)ncc2c3[C@]3(C[C@@H](COc4ccccc4)C3)C(=O)N2C)cc1NS(C)(=O)=O [Example 408, trans-N-(5-(7′-Fluoro-3′-methyl-2′-oxo-3-(phenoxymethyl)-2′,3′-dihydrospiro[cyclobulane-1,1′-pyrrolo[2,3-c]quinolin]-8′-yl)-2-(2-(isopropylamino)ethoxy)pyridin-3-yl)methanesulfonamide]	1 to 100
CC(C)NCCOc1ncc(-c2cc3c(cc2F)ncc2c3[C@]3(C[C@@H](COC(C)C)C3)C(=O)N2C)cc1NS(C)(=O)=O [Example 411, trans-N-{5-(7′-Fluoro-3-(isopropoxymethyl)-3′-methyl-2′-oxo-2′,3′-dihydrospiro[cyclobutane-1,1′-pyrrolo[2,3-c]quinolin]-8′-yl)-2-(2-(isopropylamino)ethoxy)pyridin-3-yl)methanesulfonamide]	1 to 100
CC(C)NCCOc1ncc(-c2cc3c(cc2F)ncc2c3[C@]3(C[C@@H](COC(C)C)C3)C(=O)N2C)cc1NS(=O)(=O)C(C)C [Example 413, trans-N-{5-(7′-Fluoro-3-(isopropoxymethyl)-3′-methyl-2′-oxo-2′,3′-dihydrospiro[cyclobutane-1,1′-pyrrolo[2,3-c]quinolin]-8′-yl)-2-(2-(isopropylamino)ethoxy)pyridin-3-yl)propane-2-sulfonamide]	1 to 100
CC(C)NCCOc1ncc(-c2cc3c(cc2F)ncc2c3[C@]3(C[C@H](c4ccc(F)cc4)C3)C(=O)N2C)cc1NS(C)(=O)=O [Example 422, cis-N-(5-(7′-Fluoro-3-(4-fluorophenyl)-3′-methyl-2′-oxo-2′,3′-dihydrospiro[cyclobutane-1,1′-pyrrolo[2,3-c]quinolin]-8′-yl)-2-(2-(isopropylamino)ethoxy)pyridin-3-yl)methanesulfonamide]	1 to 100
CC(C)NCCOc1ncc(-c2cc3c(cc2F)ncc2c3[C@]3(C[C@@H](c4cccc(=O)[nH]4)C3)C(=O)N2C)cc1NS(C)(=O)=O [Example 441, trans-N-(5-(7′-Fluoro-3′-methyl-2′-oxo-3-(6-oxo-1,6-dihydropyridin-2-yl)-2′,3′-dihydrospiro[cyclobutane-1,1′-pyrrolo[2,3-c]quinolin]-8′-yl)-2-(2-(isopropylamino)ethoxy)pyridin-3-yl)methanesulfonamide]	> 100
CC(C)NCCOc1ncc(-c2cc3c(cc2F)ncc2c3[C@]3(C[C@H](c4ccc(=O)[nH]c4)C3)C(=O)N2C)cc1NS(C)(=O)=O [Example 442, cis-N-(5-(7′-Fluoro-3′-methyl-2′-oxo-3-(6-oxo-1,6-dihydropyridin-3-yl)-2′,3′-dihydrospiro[cyclobutane-1,1′-pyrrolo[2,3-c]quinolin]-8′-yl)-2-(2-(isopropylamino)ethoxy)pyridin-3-yl)methanesulfonamide]	> 100
CC(C)NCCOc1ncc(-c2cc3c(cc2F)ncc2c3[C@]3(C[C@@H](c4ccc(=O)[nH]c4)C3)C(=O)N2C)cc1NS(C)(=O)=O [Example 443, trans-N-(5-(7′-Fluoro-3′-methyl-2′-oxo-3-(6-oxo-1,6-dihydropyridin-3-yl)-2′,3′-dihydrospiro[cyclobutane-1,1′-pyrrolo[2,3-c]quinolin]-8′-yl)-2-(2-(isopropylamino)ethoxy)pyridin-3-yl)methanesulfonamide]	> 100
